What was measured:
[1] = Aldolization of ketoaldehyde 4a with amino acids (1H NMR); type: physicochemical; details: L-Lys(OEt).2HCl, 1 equivalent, 100 h, DMSO-d6/D2O
Description: Aldolization of ketoaldehyde 4a with amino acids. […] To this solution was added 1 equivalent of either: a) L-proline, b) glycine, c) L-lysine hydrochloride or d) L-lysine ethyl ester dihydrochloride. At time points the samples were analyzed by ^1H NMR.

[2] = molecular target: apoB-100 of human LDL (Homo sapiens, UniProt P04114); experiment: Circular dichroism of LDL secondary structure; details: LDL 100 μg/ml, compound 10 μM, PBS pH 7.4, 37° C., up to 48 h; for random coil of LDL protein after incubation: normal LDL 27±2%; for a helical structure of LDL protein after incubation: normal LDL ~40±2%
apoB-100 of human LDL, sequence (P04114 28-4563): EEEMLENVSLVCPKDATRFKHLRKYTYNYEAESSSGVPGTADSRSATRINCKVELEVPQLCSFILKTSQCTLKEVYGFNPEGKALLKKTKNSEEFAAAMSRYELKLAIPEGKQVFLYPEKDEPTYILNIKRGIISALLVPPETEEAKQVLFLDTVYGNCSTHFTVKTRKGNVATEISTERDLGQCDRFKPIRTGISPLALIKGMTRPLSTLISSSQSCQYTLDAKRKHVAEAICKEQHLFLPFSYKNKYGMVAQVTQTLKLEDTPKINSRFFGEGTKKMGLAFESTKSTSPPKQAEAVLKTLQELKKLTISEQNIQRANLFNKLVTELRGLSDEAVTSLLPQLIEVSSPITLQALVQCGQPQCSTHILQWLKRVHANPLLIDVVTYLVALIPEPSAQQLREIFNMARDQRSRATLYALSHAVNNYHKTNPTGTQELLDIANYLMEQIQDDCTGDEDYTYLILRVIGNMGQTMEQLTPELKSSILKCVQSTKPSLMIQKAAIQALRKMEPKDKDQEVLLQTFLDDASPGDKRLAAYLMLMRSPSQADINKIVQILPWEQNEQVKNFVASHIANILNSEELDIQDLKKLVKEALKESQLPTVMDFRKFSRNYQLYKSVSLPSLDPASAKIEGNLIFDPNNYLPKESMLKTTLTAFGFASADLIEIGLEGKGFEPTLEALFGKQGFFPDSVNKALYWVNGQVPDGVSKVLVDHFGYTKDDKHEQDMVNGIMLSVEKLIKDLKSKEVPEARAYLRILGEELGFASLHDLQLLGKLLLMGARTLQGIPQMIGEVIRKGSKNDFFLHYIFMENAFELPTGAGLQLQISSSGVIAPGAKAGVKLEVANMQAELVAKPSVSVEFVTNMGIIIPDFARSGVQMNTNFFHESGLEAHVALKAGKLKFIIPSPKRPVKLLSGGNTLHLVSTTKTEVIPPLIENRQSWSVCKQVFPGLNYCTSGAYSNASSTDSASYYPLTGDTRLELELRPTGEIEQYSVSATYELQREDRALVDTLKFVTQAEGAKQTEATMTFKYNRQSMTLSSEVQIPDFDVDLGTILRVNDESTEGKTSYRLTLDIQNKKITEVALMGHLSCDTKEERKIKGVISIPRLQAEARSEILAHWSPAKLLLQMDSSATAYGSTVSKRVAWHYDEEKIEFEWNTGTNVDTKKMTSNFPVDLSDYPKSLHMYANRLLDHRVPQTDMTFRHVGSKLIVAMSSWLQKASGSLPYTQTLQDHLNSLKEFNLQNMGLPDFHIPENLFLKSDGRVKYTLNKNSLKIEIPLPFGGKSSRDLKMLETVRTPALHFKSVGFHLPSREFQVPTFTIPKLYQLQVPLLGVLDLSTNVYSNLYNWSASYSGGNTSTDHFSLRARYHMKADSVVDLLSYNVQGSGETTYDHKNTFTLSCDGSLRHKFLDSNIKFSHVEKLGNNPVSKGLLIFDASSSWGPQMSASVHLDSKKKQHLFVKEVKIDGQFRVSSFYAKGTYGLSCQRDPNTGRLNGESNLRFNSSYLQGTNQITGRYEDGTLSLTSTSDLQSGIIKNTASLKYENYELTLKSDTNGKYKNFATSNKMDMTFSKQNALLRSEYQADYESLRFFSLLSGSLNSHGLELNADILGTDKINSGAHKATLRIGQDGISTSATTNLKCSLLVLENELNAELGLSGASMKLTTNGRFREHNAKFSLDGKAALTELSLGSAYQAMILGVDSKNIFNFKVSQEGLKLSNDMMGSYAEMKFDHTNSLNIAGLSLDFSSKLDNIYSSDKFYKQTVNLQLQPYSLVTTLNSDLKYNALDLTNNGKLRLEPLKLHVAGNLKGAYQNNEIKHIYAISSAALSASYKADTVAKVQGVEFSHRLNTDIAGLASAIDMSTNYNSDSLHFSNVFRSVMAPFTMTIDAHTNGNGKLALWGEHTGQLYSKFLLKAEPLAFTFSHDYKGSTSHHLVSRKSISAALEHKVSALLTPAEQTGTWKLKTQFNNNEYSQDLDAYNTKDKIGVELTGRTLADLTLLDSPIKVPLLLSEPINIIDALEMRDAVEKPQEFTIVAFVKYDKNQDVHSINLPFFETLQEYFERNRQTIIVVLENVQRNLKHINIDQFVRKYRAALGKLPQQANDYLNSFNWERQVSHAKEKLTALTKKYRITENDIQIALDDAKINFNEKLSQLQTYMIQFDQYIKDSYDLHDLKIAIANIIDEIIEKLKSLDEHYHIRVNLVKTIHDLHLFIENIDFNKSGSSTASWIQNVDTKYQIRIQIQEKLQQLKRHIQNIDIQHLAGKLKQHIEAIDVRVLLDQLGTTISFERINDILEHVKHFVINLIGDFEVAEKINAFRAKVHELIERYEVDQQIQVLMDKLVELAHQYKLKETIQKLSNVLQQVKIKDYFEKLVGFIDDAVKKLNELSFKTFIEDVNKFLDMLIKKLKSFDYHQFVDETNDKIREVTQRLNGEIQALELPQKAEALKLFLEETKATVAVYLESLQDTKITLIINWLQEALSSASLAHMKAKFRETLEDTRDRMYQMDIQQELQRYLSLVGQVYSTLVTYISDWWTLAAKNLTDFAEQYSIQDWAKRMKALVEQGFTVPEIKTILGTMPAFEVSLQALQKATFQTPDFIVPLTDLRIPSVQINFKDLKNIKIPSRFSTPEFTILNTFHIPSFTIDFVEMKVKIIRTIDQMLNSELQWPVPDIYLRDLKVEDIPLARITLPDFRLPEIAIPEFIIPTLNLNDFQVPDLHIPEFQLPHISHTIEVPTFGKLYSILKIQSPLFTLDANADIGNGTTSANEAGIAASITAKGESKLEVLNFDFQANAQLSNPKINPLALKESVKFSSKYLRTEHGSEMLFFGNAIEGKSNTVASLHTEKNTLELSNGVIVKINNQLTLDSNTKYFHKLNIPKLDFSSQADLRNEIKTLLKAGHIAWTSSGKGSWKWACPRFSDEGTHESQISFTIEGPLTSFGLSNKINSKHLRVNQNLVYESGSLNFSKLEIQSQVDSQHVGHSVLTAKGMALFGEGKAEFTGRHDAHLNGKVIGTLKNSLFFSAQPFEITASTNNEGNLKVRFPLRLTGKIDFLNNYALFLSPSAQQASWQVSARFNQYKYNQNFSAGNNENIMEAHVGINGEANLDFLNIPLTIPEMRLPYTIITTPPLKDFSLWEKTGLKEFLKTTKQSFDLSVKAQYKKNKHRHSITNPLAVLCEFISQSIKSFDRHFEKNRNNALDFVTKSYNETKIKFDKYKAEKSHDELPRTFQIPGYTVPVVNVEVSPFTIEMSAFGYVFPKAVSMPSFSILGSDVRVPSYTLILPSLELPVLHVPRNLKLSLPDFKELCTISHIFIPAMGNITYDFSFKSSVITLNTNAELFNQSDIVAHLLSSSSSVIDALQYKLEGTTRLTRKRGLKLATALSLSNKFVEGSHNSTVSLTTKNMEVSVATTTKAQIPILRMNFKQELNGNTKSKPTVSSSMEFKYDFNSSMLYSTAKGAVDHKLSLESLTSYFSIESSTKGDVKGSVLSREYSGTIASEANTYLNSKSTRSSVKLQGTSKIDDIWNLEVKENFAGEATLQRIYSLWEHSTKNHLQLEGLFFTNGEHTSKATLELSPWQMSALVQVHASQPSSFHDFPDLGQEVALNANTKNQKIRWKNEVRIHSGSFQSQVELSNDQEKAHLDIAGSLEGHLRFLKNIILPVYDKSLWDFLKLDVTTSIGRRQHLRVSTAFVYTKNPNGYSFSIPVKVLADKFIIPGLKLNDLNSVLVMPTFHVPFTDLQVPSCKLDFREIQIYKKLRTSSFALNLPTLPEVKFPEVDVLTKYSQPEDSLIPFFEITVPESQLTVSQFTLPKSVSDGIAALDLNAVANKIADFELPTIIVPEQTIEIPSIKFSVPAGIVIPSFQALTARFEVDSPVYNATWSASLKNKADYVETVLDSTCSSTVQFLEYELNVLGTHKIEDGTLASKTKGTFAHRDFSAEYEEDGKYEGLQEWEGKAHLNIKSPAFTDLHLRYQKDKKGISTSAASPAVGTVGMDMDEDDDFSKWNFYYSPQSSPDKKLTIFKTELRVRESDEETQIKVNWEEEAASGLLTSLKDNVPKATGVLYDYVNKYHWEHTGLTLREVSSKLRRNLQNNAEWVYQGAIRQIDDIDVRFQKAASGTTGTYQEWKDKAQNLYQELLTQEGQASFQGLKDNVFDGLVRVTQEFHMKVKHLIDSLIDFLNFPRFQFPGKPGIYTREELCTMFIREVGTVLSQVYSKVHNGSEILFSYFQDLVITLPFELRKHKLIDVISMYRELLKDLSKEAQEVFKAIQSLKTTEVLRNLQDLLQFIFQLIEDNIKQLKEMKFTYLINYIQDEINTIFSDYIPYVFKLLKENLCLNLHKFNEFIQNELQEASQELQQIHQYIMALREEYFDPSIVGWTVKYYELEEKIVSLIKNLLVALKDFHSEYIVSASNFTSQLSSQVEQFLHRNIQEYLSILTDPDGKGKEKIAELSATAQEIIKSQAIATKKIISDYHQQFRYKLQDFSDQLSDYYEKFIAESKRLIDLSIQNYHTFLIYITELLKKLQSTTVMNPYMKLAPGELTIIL
Description: Circular dichroism. […] Spectra were recorded in the peptidic range (200-260 nm). To increase the signal-to-noise ratio, multiple spectra (three) were averaged for each measurement.

For `CC(C)CCC[C@@H](C)[C@H]1CCC2C(CC=O)C([C@@]3(C)CC[C@H](O)CC3=O)CC[C@@]21C` (some centres unmarked) [4a, 3βHydroxy-5-oxo-5,6-secocholestan-6-al], the “conversion of 4a into 5a” value [1] was 62 % conversion, the “random coil of LDL protein after incubation” value [2] was roughly 39±2% and the “a helical structure of LDL protein after incubation” value [2] was roughly 23±5%.

For `CC(C)CCC[C@@H](C)[C@H]1CCC2C3C(CC[C@@]21C)[C@@]1(C)CC[C@H](O)C[C@@]1(O)[C@@H]3C=O` (stereo partly drawn) [5a, 3β-Hydroxy-5β-hydroxy-B-norcholestane-6β-carboxaldehyde], the “random coil of LDL protein after incubation” value [2] was 32±4% and the “a helical structure of LDL protein after incubation” value [2] was roughly 20±2%.

Source: US20060210554A1, “Detection of cholesterol ozonation products” (priority 2003, published 2006)
